According to ChEMBL document CHEMBL3638961, “Oxazine derivatives” (2015):

Target: Beta-secretase 1 (Homo sapiens, UniProt P56817)
Assay: Inhitbition Assay: 48.5 µL of substrate peptide solution (Biotin-XSEVNLDAEFRHDSGC-Eu: X=ε-amino-n-capronic acid, Eu=Europium cryptate) was added to each well of 96-hole half-area plate (a black plate: Costar), and after addition of 0.5 µl of the test compound (dissolved in N,N'-dimethyl formaldehyde) and 1 µl of Recombinant human BACE1(R&D Systems), the reaction mixture was incubated at 30° C. for 3 hours. The substrate peptide was synthesized by reacting Cryptate TBPCOOH mono SMP (CIS bio international) with Biotin-XSEVNLDAEFRHDSGC (Peptide Institute, Inc.). The final concentrations of the substrate peptide and Recombinant human BACE1 were adjusted to 18 nmol/L and 7.4 nmol/L, respectively, and the reaction was performed in sodium acetate buffer (50 mmol/L sodium acetate, pH 5.0, 0.008% Triton X-100).After the incubation for reaction, 50 µl of 8.0 µg/ml Streptavidin-XL665 (CIS bio international) dissolved in phosphate buffer.

Sequence of Beta-secretase 1 (P56817 whole entry): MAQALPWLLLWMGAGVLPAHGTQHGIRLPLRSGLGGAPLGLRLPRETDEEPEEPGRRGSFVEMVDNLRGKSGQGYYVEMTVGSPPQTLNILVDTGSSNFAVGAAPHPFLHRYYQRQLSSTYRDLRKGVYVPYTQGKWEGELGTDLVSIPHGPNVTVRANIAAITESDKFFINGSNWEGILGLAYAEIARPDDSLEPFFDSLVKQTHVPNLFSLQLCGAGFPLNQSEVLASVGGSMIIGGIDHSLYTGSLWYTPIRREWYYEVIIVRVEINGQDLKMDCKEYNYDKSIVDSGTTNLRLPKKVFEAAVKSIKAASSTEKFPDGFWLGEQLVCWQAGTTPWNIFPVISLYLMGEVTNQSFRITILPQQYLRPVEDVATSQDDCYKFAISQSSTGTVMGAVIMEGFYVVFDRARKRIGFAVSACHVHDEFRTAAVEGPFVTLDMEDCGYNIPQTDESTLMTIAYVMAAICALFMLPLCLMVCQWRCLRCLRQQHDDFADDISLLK

IC50, < 30 µM:
CC1=C[C@@](C)(c2cc(NC(=O)c3ccc(C(F)(F)F)cn3)ccc2F)N=C(N)O1
C[C@@]1(c2cc(NC(=O)c3ccc(C#N)cn3)ccc2Cl)CCOC(N)=N1
CC1=C[C@@](C)(c2cc(NC(=O)c3ncc(F)cc3F)ccc2F)N=C(N)O1
CC1=C[C@@](C)(c2cc(NC(=O)c3ccc(Cl)cn3)ccc2F)N=C(N)O1
COc1cnc(C(=O)Nc2ccc(F)c([C@]3(C)C=C(C)OC(N)=N3)c2)cn1
CC1=C[C@@](C)(c2cc(NC(=O)c3ncc(C#N)cc3F)ccc2F)N=C(N)O1
C[C@@]1(c2cc(NC(=O)c3ncc(F)cc3F)ccc2F)CCOC(N)=N1
